Measured values reported in patent US8809341B2, “2,4-pyrimidinediamine compounds and uses as anti-proliferative agents” (Rigel Pharmaceuticals, Inc., priority 2003, dated 2014).
Values belong to the molecule of their own block, whether it stands above or below them.

Assays:
[1] = system: A549 cells; test: in vitro antiproliferation assay, A549 (lung); type: cell-based
How it was run: (§1)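 IC50 values came from standard antiproliferation testing in cultured tumour cells; the A549 and H1299 lines are of lung origin.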

[2] = system: H1299 cells; test: in vitro antiproliferation assay, H1299 (lung); type: cell-based
How it was run: as §1

[3] = in vitro antiproliferation, A549 (lung) cells, Table 4, compounds with no designated stereochemistry tested as racemate
[4] = in vitro antiproliferation, H1299 (lung) cells, Table 4, compounds with no designated stereochemistry tested as racemate
[5] = A549 (lung) cells, antiproliferation
[6] = H1299 (lung) cells, antiproliferation
[7] = IC50 class against A549 (lung) tumor cells
[8] = IC50 class against H1299 (lung) tumor cells
[9] = Table 7, in vitro antiproliferation, A549 (lung) cells
[10] = Table 7, in vitro antiproliferation, H1299 (lung) cells
[11] = Table 5, in vitro antiproliferation, A549 (lung) cells
[12] = Table 5, in vitro antiproliferation, H1299 (lung) cells
[13] = Homo sapiens, IC50 class against A549 (lung) tumor cells
[14] = Homo sapiens, NCI-H1299, IC50 class against H1299 (lung) tumor cells
[15] = A549 (lung) cells, in vitro antiproliferation
[16] = H1299 (lung) cells, in vitro antiproliferation

- IC50 [1, 3]: ≤ 20 µM
- IC50 [2, 4]: ≤ 20 µM
SMILES: COc1cc(Nc2ncc(F)c(N(C)c3ccc4c(c3)N(C)C(=O)C(C)(C)O4)n2)cc(OC)c1 [compound 326]

- IC50 [1, 3]: ≤ 20 µM
- IC50 [2, 4]: ≤ 20 µM
SMILES: Cc1cc(C)cc(Nc2ncc(F)c(Nc3ccc4c(c3)NC(=O)C(C)O4)n2)c1 (stereo not shown) [compound 229]

- IC50 [1, 5]: ≤ 20 µM
- IC50 [2, 6]: ≤ 20 µM
SMILES: COc1cc(Nc2ncc(F)c(Nc3cc(C)cc(C)c3)n2)cc(OC)c1OC [compound 895]

- IC50 [1, 5]: ≤ 20 µM
- IC50 [2, 6]: ≤ 20 µM
SMILES: CNC(=O)c1ccc(Nc2ncc(F)c(N(C)c3cc(C)c(Cl)c(C)c3)n2)cc1Cl [compound 921]

- IC50 [1, 7]: ≤ 20 µM
- IC50 [2, 8]: ≤ 20 µM
SMILES: CC(=O)N(C)c1ccc(Nc2ncc(F)c(NC3CCCCC3)n2)cc1 [compound 150]

- IC50 [1, 9]: > 20 µM
- IC50 [2, 10]: ≤ 20 µM
SMILES: COC(=O)c1cc2cc(Nc3ncc(F)c(N(C)c4cc(OC)cc(OC)c4)n3)ccc2o1 [compound 662]

- IC50 [1, 11]: > 20 µM
- IC50 [2, 12]: ≤ 20 µM
SMILES: Cc1cc(Nc2ncc(F)c(Nc3ccc4c(c3)OC(F)(F)O4)n2)cc(C(F)(F)F)c1 [compound 568]

- IC50 ([1]; A549 (lung) cells): ≤ 20 µM
- IC50 ([2]; H1299 (lung) cells): ≤ 20 µM
SMILES: CCCCn1ncc2ccc(Nc3ncc(F)c(Nc4ccc(F)c(OC)c4)n3)cc21 [compound 1089]

- IC50 [1, 13]: > 20 µM
- IC50 [2, 14]: > 20 µM
SMILES: CCOC(=O)N1CCN(c2cccc(Nc3ncc(F)c(Nc4cccc(Nc5ncc[nH]5)c4)n3)c2)CC1 [compound 1055]

- IC50 [1, 15]: ≤ 20 µM
- IC50 [2, 16]: ≤ 20 µM
SMILES: COc1cc(Nc2nc(Nc3cc(Cl)cc(Cl)c3)ncc2F)cc(C(F)(F)F)c1 [compound 823]

- IC50 [1, 5]: ≤ 20 µM
- IC50 [2, 6]: ≤ 20 µM
SMILES: O=C(COc1cccc(Nc2ncc(F)c(Nc3ccc(N4CCOCC4)cc3)n2)c1)NC1CCC1 [compound 990]

- IC50 [1, 9]: ≤ 20 µM
- IC50 [2, 10]: ≤ 20 µM
SMILES: CNC(=O)c1cc2cccc(Nc3ncc(F)c(N(C)c4cc(OC)cc(OC)c4)n3)c2[nH]1 [compound 663]

- IC50 [1, 15]: ≤ 20 µM
- IC50 [2, 16]: ≤ 20 µM
SMILES: COc1cc(Nc2nc(Nc3cc(OC)cc(C(F)(F)F)c3)ncc2F)cc(OC)c1 [compound 849]

- IC50 [1, 5]: ≤ 20 µM
- IC50 [2, 6]: ≤ 20 µM
SMILES: COc1ccc(Nc2nc(Nc3cc(-c4ncco4)cc(C(F)(F)F)c3)ncc2F)cc1OC [compound 889]

- IC50 [1, 5]: ≤ 20 µM
- IC50 [2, 6]: ≤ 20 µM
SMILES: COc1ccc(Nc2nc(Nc3ccc(CNC(=O)OC(C)(C)C)cc3)ncc2F)cc1Cl [compound 1023]

- IC50 [1, 15]: ≤ 20 µM
- IC50 [2, 16]: ≤ 20 µM
SMILES: COc1ccc(Nc2nc(Nc3cc(Cl)cc(Cl)c3)ncc2F)cc1Cl [compound 808]

- IC50 [1, 7]: ≤ 20 µM
- IC50 [2, 8]: ≤ 20 µM
SMILES: C=CCNc1ncc(F)c(N(C)c2ccc3c(c2)OCCO3)n1 [compound 1043]

- IC50 ([1]; A549 (lung) cells): ≤ 20 µM
- IC50 ([2]; H1299 (lung) cells): ≤ 20 µM
SMILES: COc1ccc(Nc2nc(Nc3ccc4c(cnn4CC4CCCCC4)c3)ncc2F)cc1Cl [compound 1090]

- IC50 [1, 15]: ≤ 20 µM
- IC50 [2, 16]: > 20 µM
SMILES: Fc1ccc(Nc2ncc(F)c(Nc3ccc(F)cc3)n2)cc1 [compound 720]

- IC50 [1, 13]: ≤ 20 µM
- IC50 [2, 14]: ≤ 20 µM
SMILES: CN1CCN(c2ccc(Nc3ncc(F)c(Nc4cc(C5CC5)[nH]n4)n3)cc2C(F)(F)F)CC1 [compound 214]

- IC50 [1, 5]: ≤ 20 µM
- IC50 [2, 6]: ≤ 20 µM
SMILES: COc1ccc(Nc2nc(Nc3ccc(C(N)=O)cc3)ncc2F)cc1Cl [compound 1022]

- IC50 [1, 13]: > 20 µM
- IC50 [2, 14]: > 20 µM
SMILES: CN1CCN(c2ccc(Nc3ncc(F)c(Nc4cccc(Nc5ncc[nH]5)c4)n3)cc2)CC1 [compound 1056]

- IC50 [1, 15]: ≤ 20 µM
- IC50 [2, 16]: < 20 µM
SMILES: COc1cc(Nc2nc(Nc3cc(CO)cc(CO)c3)ncc2F)cc(C(F)(F)F)c1 [compound 824]

- IC50 ([1]; A549 (lung) cells): ≤ 20 µM
- IC50 ([2]; H1299 (lung) cells): ≤ 20 µM
SMILES: CCCCn1ncc2ccc(Nc3ncc(F)c(Nc4ccc(Cl)c(Cl)c4)n3)cc21 [compound 1087]

- IC50 ([1]; A549 (lung) cells): ≤ 20 µM
- IC50 ([2]; H1299 (lung) cells): ≤ 20 µM
SMILES: CCCCn1ncc2ccc(Nc3ncc(F)c(Nc4ccc(OC)c(Cl)c4)n3)cc21 [compound 1086]

- IC50 [1, 7]: ≤ 20 µM
- IC50 [2, 8]: ≤ 20 µM
SMILES: CC(C)Nc1nc(Nc2ccc(N3CCN(C)CC3)c(Cl)c2)ncc1F [compound 216]

- IC50 [1, 15]: > 20 µM
- IC50 [2, 16]: > 20 µM
SMILES: CNC(=O)COc1cccc(Nc2ncc(F)c(N(C)c3cc(OC)cc(OC)c3)n2)c1 [compound 850]

- IC50 [1, 11]: ≤ 20 µM
- IC50 [2, 12]: > 20 µM
SMILES: Fc1cnc(Nc2ccc(OC(F)F)c(Cl)c2)nc1Nc1ccc2c(c1)OCCO2 [compound 526]

- IC50 [1, 7]: ≤ 20 µM
- IC50 [2, 8]: ≤ 20 µM
SMILES: O=C(Nc1ccc(Nc2ncc(F)c(NC3CCC3)n2)cc1)c1ccccc1 [compound 131]

- IC50 [1, 15]: > 20 µM
- IC50 [2, 16]: ≤ 20 µM
SMILES: COC(=O)COc1cccc(Nc2ncc(F)c(Nc3cccc(OCC(=O)OC)c3)n2)c1 [compound 724]

- IC50 [1, 3]: ≤ 20 µM
- IC50 [2, 4]: ≤ 20 µM
SMILES: COc1ccc(Nc2ncc(F)c(Nc3ccc4c(c3)NC(=O)C(C)S4)n2)cc1F (racemic) [compound 288]

- IC50 [1, 5]: > 20 µM
- IC50 [2, 6]: > 20 µM
SMILES: Cc1cc(C)cc(Nc2ncc(F)c(N(C)c3cc(C)c(Cl)c(C)c3)n2)c1 [compound 912]
